# Assay results from PMC10781691, “Vertical pathway inhibition of receptor tyrosine kinases and BAD with synergistic efficacy in triple negative breast cancer” (NPJ Precision Oncology, 2024).
# Read-outs that look alike come from different tables or passages of the source.
# Legend:
# [1] = test system: VEGFR2; conditions: ref SelleckChem; read-out: IC50 VEGFR2; cited from earlier work
# [2] = test system: c-Met; conditions: cited from earlier work
# [3] = test system: Flt-3; design: method as in SelleckChem; conditions: ref SelleckChem; cited from earlier work
# [4] = test system: Ron; design: method as in SelleckChem; conditions: ref SelleckChem; cited from earlier work
# [5] = test system: Axl; design: method as in SelleckChem; conditions: ref SelleckChem; cited from earlier work
# [6] = test system: BAD phosphorylation at Ser99; assay: Western blot of BAD phosphorylation at Ser99 in TNBC cells; type: cell-based, human; conditions: MDA-MB-231 and BT549 cells, 1 μM
# [7] = test system: MDA-MB-231 xenografts; assay: Orthotopic xenograft, combination study; type: in vivo, BALB/c-nude mice
# Method: (§1) In vivo bioluminescent imaging was performed to determine the incidence and metastatic burden of luciferase-labeled 4T1 cells. Mice were injected i.p. with 10 mg/ml of D-luciferin (Gold Biotechnology, MO, USA) and imaged using a PerkinElmer IVIS Spectrum system. PDX were generated as previously described by transplanting fresh fragments orthotopically into 8-week-old female nonobese diabetic (NOD)/severe combined immunodeficient (SCID) mice (Beijing Vital River Laboratory Animal Technology Co., Beijing, China) (P1, passage 1)[40]. The P1 xenografts were then fragmented, digested into single-cell suspension and implanted into mammary fat pad (100 μL PBS containing growth factor reduced 50% Matrigel) of NOD/SCID mice. Once orthotopic xenografts reached an approximate size of 100 mm^3, the mice were randomly divided into three groups (n = 8) for single drug studies and six groups (n = 6) for combination studies and Kaplan-Meier (KM) analyses. […] Animal body weight and xenograft size were measured daily using an electronic balance and a digital caliper, respectively. Xenograft volume (mm^3) was calculated by using the formula: 0.52 × length × [width]^2. Complete response (CR) was achieved if the average xenograft volume for the treatment group was unable to be determined for two or more consecutive measurements. Partial response (PR) was achieved if the average xenograft volume reduced to <50 mm^3 for two or more consecutive measurements. After 3-week drug treatment, all mice were sacrificed by CO2 inhalation. Tumor and vital organs were weighed and isolated for further analysis. IHC analysis of xenograft histology sections and quantitative polymerase chain reaction (qPCR) were performed as previously described.
# Data represent means ± SD. *P < 0.05, **P < 0.01, and ***P < 0.001.
# Data represent means ± SD (n=6). *P < 0.05, **P
# < 0.01, and ***P < 0.001.
# Abbreviations: ALT/GOT, alanine
# aminotransferase/ glutamic oxaloacetic transaminase; AST/GPT, aspartate aminotransferase/
# glutamic pyruvic transaminase; CREA, creatinine; UREA, urea; and ALB, albumin. Data
# represent means ± SD. *P < 0.05, **P < 0.01, and ***P < 0.001.
# [8] = test system: 4T1-luciferase cells; conditions: 4T1-luciferase metastasis model
# Method: Since metastasis is the primary contributor to mortality and poor prognosis for TNBC patients, the therapeutic potential of NCK, TKIs or combined NCK-TKI treatment on TNBC metastasis was further evaluated with an experimental lung metastasis model.
# as §1, with “described. […] For PDX, xenograft growth was monitored daily by measurement of the xenograft volume until mice humane endpoint ( ~ 1000 mm^3).” for “described.”
# luciferase cell generated metastasis model. Scale bar, 20 µm. (C) Animal weight of each
# treatment group was indicated. (D) Changes in relative lung, liver, spleen, heart and kidney
# (CRI) or combinations during the study at day 9.
# [9] = test system: USTC-0 PDX; assay: TNBC patient-derived xenograft; type: in vivo, NOD/SCID mice
# Method: (§2) The effect of drug treatments on two patient-derived xenograft (PDX) models of TNBC, USTC-0 and USTC-1 were next examined. The use of the USTC-1 PDX was previously reported.
# as §1, with “described. […] For PDX, xenograft growth was monitored daily by measurement of the xenograft volume until mice humane endpoint ( ~ 1000 mm^3).” for “described.”
# [10] = test system: USTC-1 PDX; assay: TNBC patient-derived xenograft; type: in vivo, NOD/SCID mice
# Method: as §2
# as §1, with “described. […] For PDX, xenograft growth was monitored daily by measurement of the xenograft volume until mice humane endpoint ( ~ 1000 mm^3).” for “described.”
# [11] = test system: MAPK and PI3K/AKT pathways; assay: Western blot of PI3K/AKT and MAPK pathway proteins; type: cell-based, human
# Method: Next, western blot analyses were performed to determine potential alteration in expression or activity of the target proteins along the MAPK and PI3K/AKT pathways. […] . […] CI analysis method.
# [12] = test system: MDA-MB-231 cells; assay: Foci formation (crystal violet); conditions: MDA-MB-231, 5 μM each
# [13] = test system: BT549 cells; assay: Foci formation (crystal violet); conditions: BT549, 5 μM each
# [14] = test system: Src; design: method as in SelleckChem; conditions: ref SelleckChem; cited from earlier work
# [15] = test system: MEK/ERK; design: method as in SelleckChem; conditions: ref SelleckChem; cited from earlier work
# [16] = test system: ErbB2; design: method as in SelleckChem; conditions: ref SelleckChem; cited from earlier work
# [17] = test system: FGFR1; conditions: read-out: IC50 FGFR1; ref SelleckChem; cited from earlier work
# [18] = test system: c-Kit; conditions: ref SelleckChem; read-out: IC50 c-Kit; cited from earlier work
# [19] = test system: Raf1; design: method as in SelleckChem; conditions: ref SelleckChem; cited from earlier work
# [20] = test system: VEGFR3; design: method as in SelleckChem; conditions: ref SelleckChem; cited from earlier work
# [21] = test system: PDGFR-β; design: method as in SelleckChem; conditions: ref SelleckChem; cited from earlier work
# [22] = test system: Tie-2; design: method as in SelleckChem; conditions: ref SelleckChem; cited from earlier work
smiles,measurement,setting,value
Nc1nccc(Oc2ccc(NC(=O)c3c[nH]cc(-c4ccc(F)cc4)c3=O)cc2F)c1Cl [BMS-794833],IC50,[1],15 nM
same,IC50,"[2]; ref SelleckChem, read-out: IC50 c-Met",1.7 nM
same,IC50,[3],< 3 nM
same,IC50,[4],< 3 nM
same,IC50,[5],< 3 nM
C[C@@H](Oc1cc(-c2cnn(C3CCNCC3)c2)cnc1N)c1c(Cl)ccc(F)c1Cl [Crizotinib],level of pBADSer99/BAD,[6],significantly decreased the level of pBADSer99/BAD
same,% Regression: Complete Response (100%),"[7]; MDA-MB-231 xenograft, day 21",17%
same,% Regression: Partial Response (>50%),"[7]; MDA-MB-231 xenograft, day 21",17%
same,% Regression: Disease Progression,"[7]; MDA-MB-231 xenograft, day 21 (xenograft volume >100 mm^3)",66%
same,complete regression of xenografts,"[7]; day 21, NCK 20 mg/kg q.d., OSI-930 20 mg/kg q.d., Crizotinib 50 mg/kg b.i.w.",16.67%
same,lung metastases (bioluminescent signals) vs control,[8],significantly abrogated lung metastases
same,PDX xenograft volume,"[9]; USTC-0, 21 days treatment",significantly reduced the xenograft volume
same,survival of PDX-bearing mice,"[9]; USTC-0, single agents vs vehicle, combinations vs OSI-930 or Crizotinib alone",markedly extended the survival
same,Median survival,"[9]; USTC-0, vehicle 25.5",34.5 days
same,PDX xenograft volume,"[10]; USTC-1, 21 days treatment",significantly reduced the xenograft volume
same,Median survival,"[10]; USTC-1, vehicle 22.5",27.0 days
same,phosphorylated and total proteins of MAPK and PI3K/AKT pathways,"[11]; BT549, 1 μM",significantly reduced the level of p-AKT (Ser473)/AKT
same,phosphorylated and total proteins of MAPK and PI3K/AKT pathways,"[11]; MDA-MB-231, 1 μM",significantly inhibited the PI3K/AKT pathway
same,2D foci formation,[12],significantly attenuated the capacity for foci formation
same,2D foci formation,[13],significantly attenuated the capacity for foci formation
CCOc1cc2ncc(C#N)c(Nc3ccc(F)c(Cl)c3)c2cc1NC(=O)/C=C/CN(C)C [Pelitinib],IC50,[14],282 nM
same,IC50,[15],800 nM
same,IC50,[16],1260 nM
Cc1ccc(C(=O)Nc2ccc(CN3CCN(C)CC3)c(C(F)(F)F)c2)cc1C#Cc1cnc2cccnn12 [Ponatinib],IC50,[14],5.4 nM
CNC(=O)c1cc(Oc2ccc(NC(=O)Nc3ccc(Cl)c(C(F)(F)F)c3)cc2)ccn1 [Sorafenib],IC50,[18],68 nM
same,IC50,[19],6 nM
COc1ccc2cc(-c3nc(-c4ccc([S+](C)[O-])cc4)[nH]c3-c3ccncc3)ccc2c1 (centres unmarked) [Tie2 kinase inhibitor],IC50,[22],0.25 nM
